How the values were obtained:
[1] = molecular target: T1, His-tagged bHLH-LZ domain of human Myc protein (aa353-439) (Homo sapiens, UniProt P01106); assay: Surface Plasmon Resonance binding to immobilized Myc; conditions: average KD, equilibrium fit, 25°C; combinations as equimolar titrations; read-out: SPR (Kd), direct MYC binding
T1 construct: human Myc protein (aa353-439, Cayman Chemicals, Ann Arbor, MI); purchased Cayman Chemicals
Protocol: All SPR experiments were performed on a Bio-Rad XPR36 instrument at 25°C. His-tagged bHLH-LZ domain of human Myc protein (aa353-439, Cayman Chemicals, Ann Arbor, MI) was immobilized in running buffer (20 mM Na-phosphate, pH 7.5, 300 mM NaCl, 4 mM KCl,. 05% Tween20) in the absence of DMSO at 25μL/min for 400 seconds on Bio-Rad HTE (Ni-NTA) chips with a resulting RU value of about 4500 after immobilization. Compound binding was analyzed in the same running buffer with a final DMSO concentration of 2%. Compounds were injected at 30μL/min for 180 seconds with a dissociation time of 300 seconds. Injections consisted of 5 concentrations of compounds plus a blank channel for reference that flowed over all immobilized ligands in a matrix format. Regeneration steps were not required due to the rapid dissociation of compounds. Equilibrium fits were performed with the ProteOn software after inter-spot and reference channel subtractions.
We next analyzed whether these dimeric inhibitors could directly bind to Myc. To do this we developed a Surface Plasma Resonance (SPR) assay to compare the binding affinities of the monomers to that of the dimeric inhibitors. We immobilized the bHLHZip domain of Myc to the surface of a Ni-NTA chip via a His-tag and measured binding affinities for the monomers or dimers. […] We observed similar data with the E08+N11 dimer.

Myc:Max interaction = molecular target: T2, Myc:Max interaction (Homo sapiens, UniProt P01106); assay: Cell-free Myc:Max ELISA; assay type: biochemical; conditions: average with standard deviation; combinations as equimolar (1:1) titrations, concentration of each monomer; read-out: ELISA (IC50), inhibition of cell-free MYC-MAX heterodimer formation
T2 construct: purchased Origene (Myc); Sino Biologicals (Max)
Protocol: High binding 96-well plates were coated with GST-conjugated full-length Max protein (Sino Biologicals) at 1ng/μL in 100μl of PBS overnight at 4°C. The plate was washed 4x 200 μl/well with PBS and blocked in 200 μl/well of 5% nonfat dry milk in PBS for 2 hours at room temperature. […] Compounds were serially diluted in 100% DMSO and then sequentially diluted […] into the Myc solution before incubation for one hour at room temperature. For internal consistency, final DMSO concentrations were kept at 2%. The blocked plate was washed 4x 200μl/well with Buffer A, before addition of 100 μl of the Myc compound mixture. Plates were incubated for four hours at RT, and washed 4x 200 μl Buffer A/well. Anti-Myc antibody (Cell Signaling) was diluted 1:1000 in 5% nonfat dry milk in Buffer A. 100 μL/well diluted primary antibody was added to each well and incubated for one hour at room temperature. Plates were washed 4x 200 μl/well Buffer A. HRP-conjugated goat anti-rabbit antibody (GE Healthcare) was diluted 1:5000 in 5% nonfat dry milk in Buffer A. 100 μL/well diluted secondary antibody was added to each well and incubated for thirty minutes at room temperature. The plates were washed 4x 200 μL/well Buffer A. 50 μL/well of FEMTO chemiluminescent reagent (Thermo Scientific) was added, and luminescence was immediately read on a Victor X5 plate reader (PerkinElmer) with a 0.1 sec integration time. IC50s were generated through non-linear fitting of data with prism (GraphPad).
We next asked whether the binding of these dimers to Myc could disrupt the interaction with its transcriptional partner Max. We developed an ELISA using purified Myc and Max protein that allowed us to measure effects on Myc:Max binding. The ELISA plate was initially coated with Max protein and the compounds pre-incubated with Myc protein prior to addition to the Max-coated plate. After extensive washing, Myc binding to Max was detected using an anti-Myc antibody. […] We observe similar effects for the dimeric inhibitor E08+N11 (Table 1).

[2] = molecular target: T3, Max:Max homodimers in complex with E-box DNA (Homo sapiens, UniProt P61244); assay: Electrophoretic mobility shift assay (EMSA), Max:Max homodimer binding to DNA; assay type: biochemical; conditions: cell-free EMSA, E-box oligonucleotide
T3 construct: His-tagged and GST-tagged full-length human Max protein; purchased Sino Biologicals #12885-H20B

Daudi cells = assay: Cell proliferation / viability assay and Bliss synergy analysis; assay type: cell-based; conditions: concentrations up to 30 μM, 3 days
Protocol: K562 (CCL-243), Daudi (CCL-213), Raji (CCL-86) and MV4-11(CCL-9591) cells were purchased directly from American Type Culture Collection (Manassas, VA) and routinely cultured under recommended conditions. Growth and proliferation was determined by use of Cell Titer 96 Aqueous One Solution (Promega, Madison, WI). All cells were plated at 10,000 cells per well in growth media in a clear 96 well plate. After 3 days of compound treatment reagent was added, and absorbance at 490 nm was read after incubation for 4 hours at 37°C. A control plate of compound diluted in media at the same concentrations was treated in a similar way and these values subtracted from the cell plate data to control for any compound interference in the assay. Synergy was determined using the Bliss model of independence.
We screened pairwise combinations of monomers from our libraries in a cell proliferation assay. Increasing concentrations of each compound were dosed in an 8x6 matrix format and their effects on cell proliferation monitored. […] The majority of the combinations were additive in nature, a result consistent with the combination of the two parent ligands C01 and C02 (S1 Fig.). We identified a number of combinations that were synergistic, and representative graphs showing dose dependent inhibition of proliferation with 2 different combinations (E07+N12 and E08+N11) are shown (Fig. 2 A and B). There was no activity of the individual compounds E07, E08, N12, or N11 in the proliferation assay at concentrations up to 30 μM.
Our cell-free experiments had clearly shown that the ability for self-assembly of the dimer was important in driving the improved inhibitory effect versus the Myc protein. To test this in a cellular context we compared the effect on cell viability of the E08+N11 dimer versus its non-dimerizable control combination E08+C11. […] Similar effects on cell viability and Myc protein levels were also observed for the dimer E07+N12 but not its non-dimerizable control E07+C12 (S5 Fig.).

[3] = molecular target: T4, Myc:Max heterodimers in complex with E-box DNA (Homo sapiens, UniProt P01106); assay: Electrophoretic mobility shift assay (EMSA), Myc:Max heterodimer binding to DNA; assay type: biochemical; conditions: cell-free EMSA, E-box oligonucleotide
T4 construct: c-Myc residues Asn352 to Ala439; 6xHis (N); TEV cleavage site (N); purchased Cayman Chemical (Myc, custom expression); Sino Biologicals (Max) #12885-H20B (Max); host or cells: E. coli BL21StarDE3 (Myc)
Protocol: Human c-Myc (NP_002458.2) containing the bHLH-LZ domain was cloned into a modified pET21a vector and then transformed into the BL21StarDE3 expression system, expressed, and purified at Cayman Chemical. The construct consists of an N-terminal 6xHis tag with a TEV cleavage site, c-Myc residues Asn352 to Ala439, and a GGCD C-terminal extension (molecular weight 12.9 kDa). Compounds were added to 200 ng c-Myc in reaction buffer (100 mM KCL, 1 mM DTT, 1 mM EDTA, 50 mM Tris pH7.4, 5mM MgCl2, 0.002% NP40) and incubated for 60 minutes at room temperature. […] Finally, annealed double-stranded E-box containing DNA oligonucleotide with sequence 5’-[…]-3’ was added to a final concentration of 100 nM for twenty minutes incubation at room temperature. The final concentration of DMSO was kept constant at 2%. The protein-DNA complexes (final volume 10 μl) were resolved on NativePAGE Novex 4–16% Bis-Tris Protein Gels (Life technologies, #BN1002BOX) at 4°C with pre-chilled TBE (89 mM Tris-borate, 1 mM EDTA) at 125V for 90 minutes. SYBR Green EMSA Nucleotide Acid gel stain (Molecular Probes, #E33075) was used to stain dsDNA and DNA-protein complexes. Images were captured with an Alpha Innotech FluorChem Q imager installed with AlphaView software.
The formation of the Myc:Max heterodimer is required for its ability to bind to DNA sequences and trigger transcriptional activation of Myc-dependent genes. […]

Max = Max (human, UniProt P61244 1-160); assay: EMSA; Max:Max homodimer, no Myc; EMSA: 100 mM KCl, 1 mM DTT, 1 mM EDTA, 50 mM Tris pH 7.4, 5 mM MgCl2, 0.002% NP40, 2% DMSO, room temperature; 200 ng Myc, 350 ng Max, 100 nM DNA, 10 ul; gel run in TBE at 4 C; conditions: protein: commercial; tags: His and GST; chain copies: 2; label: none (SYBR Green stain); (only one strand given)
Chain of Max (P61244 whole entry): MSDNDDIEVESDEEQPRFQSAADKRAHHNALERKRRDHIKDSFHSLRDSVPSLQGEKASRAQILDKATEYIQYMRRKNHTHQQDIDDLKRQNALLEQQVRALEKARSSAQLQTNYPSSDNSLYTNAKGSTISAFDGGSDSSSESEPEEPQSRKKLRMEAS

T1 sequence (P01106 368-454): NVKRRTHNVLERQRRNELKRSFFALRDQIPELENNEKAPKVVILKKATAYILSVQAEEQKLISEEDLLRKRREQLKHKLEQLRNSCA
T2 sequence (P01106 whole entry): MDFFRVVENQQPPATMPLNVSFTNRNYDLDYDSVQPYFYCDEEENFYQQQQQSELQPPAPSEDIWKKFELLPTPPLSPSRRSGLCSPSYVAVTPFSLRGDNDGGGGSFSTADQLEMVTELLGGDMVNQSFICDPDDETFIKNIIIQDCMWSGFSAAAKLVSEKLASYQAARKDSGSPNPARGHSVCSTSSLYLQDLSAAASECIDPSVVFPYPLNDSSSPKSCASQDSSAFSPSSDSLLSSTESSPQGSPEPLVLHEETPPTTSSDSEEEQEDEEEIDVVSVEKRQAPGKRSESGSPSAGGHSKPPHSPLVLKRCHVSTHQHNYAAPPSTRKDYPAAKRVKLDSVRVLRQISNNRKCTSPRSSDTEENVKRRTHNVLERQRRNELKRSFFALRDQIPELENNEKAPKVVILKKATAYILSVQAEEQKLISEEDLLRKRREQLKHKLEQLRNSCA
T4 sequence (P01106 with tags, fused parts or gaps): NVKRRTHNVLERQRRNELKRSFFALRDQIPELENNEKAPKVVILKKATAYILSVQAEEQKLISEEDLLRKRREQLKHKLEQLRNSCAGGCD

| Molecule | Kd [1] | IC50 (Myc:Max interaction) | effect on Max:Max complex binding to DNA (gel mobility shift) [2] | activity of the individual compounds in the proliferation assay (Daudi cells) | effect on Myc:Max complex binding to DNA (gel mobility shift) [3] | binding result (Max) |
| --- | --- | --- | --- | --- | --- | --- |
| CCc1ccc(/C=C2\SC(=O)N(CCNC(=O)[C@@H]3C[C@H]4C=C[C@H]3C4)C2=O)cc1 [C11] | > 50 µM | > 30 µM |  |  |  |  |
| NC(=O)c1ccccc1Nc1ccc([N+](=O)[O-])c2nonc12 [C02, 2-((7-Nitrobenzo[c][1,2,5]oxadiazol-4-yl)amino)benzamide, reference compound] |  | > 30 µM |  |  |  |  |
| O=C(NCc1cccc(B(O)O)c1)c1ccccc1Nc1ccc([N+](=O)[O-])c2nonc12 [E07] | 42 ± 10 µM | 24 ± 7.4 µM | Neither of the two monomers, E07 or N12, had any noticeable effect | no activity | Neither of the two monomers, E07 or N12, had any noticeable effect |  |
| O=C(NCc1ccc(B(O)O)cc1)c1ccccc1Nc1ccc([N+](=O)[O-])c2nonc12 [E08] | 47 ± 9 µM | > 30 µM |  | no activity |  |  |
| CCc1ccc(/C=C2\SC(=O)NC2=O)cc1 [C01, reference compound] |  | > 30 µM |  |  |  |  |
| CCc1ccc(/C=C2\SC(=O)N(CC[C@@H]3C[C@@H]4C=C[C@H]3C4)C2=O)cc1 [C12] | > 50 µM | > 30 µM |  |  |  |  |
| CCc1ccc(/C=C2\SC(=O)N(CC[C@@H]3C[C@H]4C[C@@H]3[C@H](O)[C@@H]4O)C2=O)cc1 [N12] | > 50 µM | > 30 µM | Neither of the two monomers, E07 or N12, had any noticeable effect | no activity | Neither of the two monomers, E07 or N12, had any noticeable effect |  |
| CCc1ccc(/C=C2\SC(=O)N(CCNC(=O)[C@@H]3C[C@@H]4C[C@H]3[C@@H](O)[C@H]4O)C2=O)cc1 [N11] | > 50 µM | > 30 µM |  | no activity |  |  |
| E-box oligonucleotide (dsDNA) DNA 1: GATCAGTTGACCACGTGGTCTGGG DNA 2: CCCAGACCACGTGGTCAACTGATC |  |  |  |  |  | binds |

— publication PMC4398458, “Reversible Linkage of Two Distinct Small Molecule Inhibitors of Myc Generates a Dimeric Inhibitor with Improved Potency That Is Active in Myc Over-Expressing Cancer Cell Lines” (PLoS ONE, 2015)
